Results reported in patent US20220016272A1, “COMPOSITIONS, METHODS AND KITS FOR DIAGNOSING AND TREATING CD206 EXPRESSING CELL-RELATED DISORDERS” (Cardinal Health 414, LLC, priority 2013, published 2022).

Tests used:
[1] = molecular target: mannose receptor protein CD206 (Homo sapiens, UniProt P22897)
[2] = test system: Kaposi's sarcoma lesion(s); assay: SPECT and SPECT/CT imaging of primary cutaneous Kaposi's sarcoma; assay type: in vivo, human; conditions: 50 μg tilmanocept, 2.0 mCi 99mTc, subcutaneous; example in present tense
Description: The following illustrates yet another example of the evaluation of Primary Cutaneous Kaposi's Sarcoma (KS) by SPECT and SPECT/CT Imaging using Lymphoseek® (also known as technetium 99mTc-tilmanocept injection) a radiopharmaceutical that binds to mannose binding receptors (CD206) that reside on the surfaces of dendritic cells and macrophages.
The total volume of 99mTc-tilmanocept injection is 0.3 to 0.5 mL.
The patient has a marker lesion (>1 cm in diameter) with a confirmed diagnosis of KS (CD206-expressing cutaneous KS) via punch biopsy. The location of the marker KS lesion is on the extremities: from the shoulder to the metacarpal region or from the groin to the metatarsal region.
The dose is administered by a syringe with a ⅝ inch, 25- or 27-gauge, fixed needle, or other syringe/needle combinations that are acceptable for subcutaneous injections. The injection is made 1.5±0.25 cm distal from the marker lesion, 4-8 cm distal to the marker lesion, or 4-8 cm proximal to the marker lesion.
The patient undergoes a regional dynamic SPECT scan immediately post-injection for a duration of 30 minutes. After the initial scan, the patient undergoes whole body SPECT/CT imaging at 1 hour and whole body SPECT imaging at 4-6 hours post injection. The patient is permitted to leave the imaging center after the 4-6 hour SPECT scan. […]

[3] = staging breast cancer, melanoma or SCC; cited from earlier work

mannose receptor protein CD206, sequence (P22897 19-1456): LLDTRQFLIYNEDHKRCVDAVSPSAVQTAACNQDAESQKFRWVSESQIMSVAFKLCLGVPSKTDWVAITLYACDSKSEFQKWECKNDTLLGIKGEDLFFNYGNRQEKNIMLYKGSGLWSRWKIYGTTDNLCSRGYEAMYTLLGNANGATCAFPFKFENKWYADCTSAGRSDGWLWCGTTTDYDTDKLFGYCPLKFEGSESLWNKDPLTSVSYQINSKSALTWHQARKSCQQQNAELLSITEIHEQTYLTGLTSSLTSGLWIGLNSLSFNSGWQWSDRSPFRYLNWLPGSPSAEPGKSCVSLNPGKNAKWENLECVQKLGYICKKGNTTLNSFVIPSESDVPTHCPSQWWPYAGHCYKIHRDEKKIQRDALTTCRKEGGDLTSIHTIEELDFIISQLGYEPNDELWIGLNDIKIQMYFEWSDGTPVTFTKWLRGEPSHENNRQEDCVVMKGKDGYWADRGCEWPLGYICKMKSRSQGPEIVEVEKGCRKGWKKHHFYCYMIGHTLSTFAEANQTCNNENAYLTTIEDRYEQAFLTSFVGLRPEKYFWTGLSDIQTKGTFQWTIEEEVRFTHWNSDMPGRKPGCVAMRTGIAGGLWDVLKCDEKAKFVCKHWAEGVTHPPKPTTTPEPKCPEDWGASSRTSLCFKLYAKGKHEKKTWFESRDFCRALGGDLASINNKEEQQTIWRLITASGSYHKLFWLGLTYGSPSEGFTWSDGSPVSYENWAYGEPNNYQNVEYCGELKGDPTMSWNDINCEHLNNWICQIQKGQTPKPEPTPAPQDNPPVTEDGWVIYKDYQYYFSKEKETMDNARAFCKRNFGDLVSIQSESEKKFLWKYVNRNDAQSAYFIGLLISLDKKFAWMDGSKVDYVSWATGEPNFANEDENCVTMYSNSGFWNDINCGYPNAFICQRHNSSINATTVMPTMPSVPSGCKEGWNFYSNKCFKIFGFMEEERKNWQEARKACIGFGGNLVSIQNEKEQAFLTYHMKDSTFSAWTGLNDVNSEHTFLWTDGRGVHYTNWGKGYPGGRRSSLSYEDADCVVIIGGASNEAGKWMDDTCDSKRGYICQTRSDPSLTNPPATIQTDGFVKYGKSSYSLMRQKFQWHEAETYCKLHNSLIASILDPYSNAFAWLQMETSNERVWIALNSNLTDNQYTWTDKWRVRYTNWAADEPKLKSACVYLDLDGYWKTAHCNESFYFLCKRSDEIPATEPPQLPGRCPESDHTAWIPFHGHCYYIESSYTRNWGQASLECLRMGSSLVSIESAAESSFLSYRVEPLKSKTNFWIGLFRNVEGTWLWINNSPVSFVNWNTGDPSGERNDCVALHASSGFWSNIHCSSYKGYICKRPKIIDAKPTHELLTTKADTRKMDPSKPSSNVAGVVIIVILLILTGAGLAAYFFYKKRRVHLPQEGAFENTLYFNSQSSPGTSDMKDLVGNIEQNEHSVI

## dextran 3-[(2-aminoethyl)thio]propyl 17-carboxy-10,13,16-tris (carboxymethyl)-8-oxo-4-thia-7,10,13,16-tetraazaheptadec-1-yl 3-[[2-[[1-imino-2-(D-mannopyranosylthio) ethyl]aminolethyllthiolpropyl ether complexes [tilmanocept]
[1]
  intracellular fate after uptake into macrophage: persists in stable non-digesting vesicles
[1]; administered to mammals or contacted with CD206 expressing cells ex vivo
  receptor specificity: bind exclusively to the mannose receptor protein CD206

## technetium Tc 99m, dextran 3-[(2-aminoethyl)thio]propyl 17-carboxy-10,13,16-tris(carboxymethyl)-8-oxo-4-thia-7,10,13,16-tetraaz aheptadec-1-yl 3-[[2-[[1-imino-2-(D-mannopyranosylthio) ethyl]amino]ethyl]thio]propyl ether complexes [Lymphoseek]
[2]
  detection of KS lesions by SPECT and SPECT/CT: aids in the detection of Kaposi's sarcoma lesion(s)
[3]
  injection site clearance: rapid clearance from an injection site
  uptake by distal or second-echelon lymph nodes: low uptake by distal or second-echelon lymph nodes
  uptake by the sentinel lymph node(s): rapid and sustained uptake by the sentinel lymph node(s)
